Like-named read-outs stand apart in the source and are kept apart here.

Series [1] concerns SNU-398 cells. Description: Caspase 3/7 assay in SNU-398 cells. The note with it: SNU-398 after knockdown. The format is cell-based, human. The text has this: FIGS. 25A-25G: Functional roles of SALL4 in HCC. (25A) qPCR analysis of relative SALL4A and SALL4B expression on SNU-398 cells four days post-transduction. Error bars indicate standard error of three replicates. (25B) Western blot analysis of SALL4 expression on SNU-398 cells four days post-transduction. (25C) MTS analysis of cell viability upon gene knockdown by scrambled control shRNA (Scr) or E5 shRNA targeting SALL4 (E5) on SNU-398 (left) or SNU-387 (right) cells. Error bars indicate standard error of three replicates. (25D) Cell counting assay using trypan blus stain. […] (25F) Effects of SALL4 gene knockdown on tumorigenecity of HuH-7 cells. Representative images of mice transplanted with HuH-7 cells infected with virus expressing scrambled shRNA or E5 shRNA (top).
To further characterize the effects of loss of SALL4 in HCC cells, more functional assays in SNU-398 cells, which express high SALL4, were carried out. […] Furthermore, increased apoptosis in SALL4-knockdown HCC cells was observed by assessing caspase activities. Increased caspase 3/7 activities was observed upon loss of SALL4 in SNU-398 HCC cells (FIG. 30D), as well as increased cleaved caspase 3 (FIG. 30E).

The test system of series [2] is SALL4. As to the kind of experiment: SALL4 knock-down in HCC cells (qPCR, Western blot). The class given is cell-based, human. How it is done: Lentiviruses expressing scrambled shRNA or E5 SALL4-specific shRNA were packaged by treansfection of 293T cells with lentiviral vector pLL3.7. 24 hours and 48 hours post-transfection, viruses were harvested and filtered through […]. Virus titers were determined by FACS analysis of GFP expression using infected 3T3 cells by the conventional ways. MOI 0.5 to 5 was used dependent on individual cell lines. Transduction of HCC cells were carried out using spinoculation protocol, virus was added to the trypsinized cells and let settle for an hour at 37° C. in a humidified atmostphere of 5% CO2, centrifuged at 2,200 RPM at 37° C. for 90 mins and incubated overnight at 37° C. in a humidified atmostphere of 5% CO2. Transduction efficiency was determined by GFP expression by FACS analysis.
After successfully establishing the expression pattern of SALL4 in human livers at various stages and the clinical significance of SALL4 in HCC, the functional roles of SALL4 in HCC was investigated. […] The efficiency of virus transduction was assessed by FACS analysis of GFP expression. […]
Next, the potential of SALL4 as a molecular target for therapeutic intervention in HCC was examined by performing loss-of-function studies. […] The efficiency of virus transduction was assessed by the percentage of cells expressing GFP by flow cytometry. […]

Series [3] relates to AN3CA cells. Description: Cell viability assay (MTT/MTS). The note with it: AN3CA (high SALL4, no PTEN). The format is cell-based, human. How it is done:
Cell viability assay (MTT) (Invitrogen) was performed according to the manufacturer's instructions. Briefly—10000 cells were seeded in 100 ul medium in 96 well plates. The next day cells were treated as indicated on the figures. At the designated time after the treatment 20 ul of 5 mg/ml MTT solution was added to each well. After 3.5 h incubation at 37 C the medium was removed and the reaction was terminated with a solution of 4 mM HCl, 0.1% Nondet P-40 (NP40) all in isopropanol in dark on orbital shaker for […]. at room temperature. The absorbance was read at 590 nm with a reference filter of 620 nm in Spectromax M3 (ABI) spectrophotometer.
Multiple leukemic and solid tumor cancer cell lines with high or low/no SALL4 expression (FIG. 10A) were chosen to test the biological effect(s) of the wild type peptide. Wild type or scrambled peptide was delivered into tumor cells at various concentrations, and their effects on cells were evaluated 72 hours post-treatment by the MTS cell viability assay. […] The effect of wild type peptide is SALL4-specific, as it had no effect on KBM5, an AML cell line with undetectable endogenous SALL4 expression. We were surprised to see that the wild type peptide had no effect on a high SALL4-expressing endometrioid cancer cell line, AN3CA. […] Therefore, expression of PTEN was evaluated in AN3CA cells along with other cell lines. […]

The subject of series [4] is OV90. As to the kind of experiment: Peptide treatment of ovarian cancer cells. The class given is cell-based. As for the experimental part:
Mut-peptide: mutant peptide; WT-peptide: wild-type peptide.
To understand the mechanism(s) of SALL4 function(s), SALL4-associated proteins were identified by tandem mass spectrometry. Components of the Mi-2/nucleosome remodeling and deacetylase (NuRD) complex were found in SALL4-immunocomplexes along with HDAC activity in ESCs with endogenous SALL4 expression and 293T cells overexpressing SALL4. The SALL4-mediated transcriptional regulation was tested on one potential target gene: Phosphatase and Tensin Homolog (Pten). Pten was confirmed as SALL4 downstream targets by chromatin-immunoprecipitation (ChIP), and its expression level, when tested by quantitative reverse transcription polymerase chain reaction (qRT-PCR), was decreased in 293T cells overexpressing SALL4. […] A small peptide that can block the oncogenic role of SALL4 in repressing Pten has been generated.

“CTATTTAGCCAAAGGCAAA (short hairpin RNA, chemistry and delivery not given here, further chemistry not given here) [E5 shRNA]”: in series [1], the “caspase 3/7 activity (apoptosis)” value is given as “increase in apoptosis activity”. Moreover, in series [2] (SNU-398, four days post-transduction), the “SALL4 isoforms mRNA level after knockdown” value was 70%. In addition, in series [2] (Western blot), the “SALL4 protein level after knockdown” value is “almost all SALL4 proteins were gone”.
On to “H-MSRRKQAKPQHI-OH [wt peptide, MSRRKQAKPQHI]”, for which the cell viability result in series [3] was “had no effect”. Also, the “living cells / cell death” value in series [4] is reported as “decreased living cells”; in series [4] (listed as small peptide), “resulted in cell death”.

Source of the values: patent publication US9365851B2, “Spalt-like transcription factor 4 (SALL4) and uses thereof” (National University of Singapore, priority 2011, dated 2016).
